Reference: US9598383B2, “Reactive oxygen species-based prodrugs” (The Regents of the University of California, priority 2013, dated 2017)

What was measured:
[1] = H2O2-triggered deprotection of model compounds (conversion to acid), analytical HPLC; format: physicochemical; conditions: for percent conversion to acid: incubation at RT; for deprotection, conversion to the acid: excess of H2O2 (27 equiv) in buffer, after 4 h of incubation
Procedure: To be effective prodrugs must have good water solubility and be rapidly converted to the active drug under the desired stimulus. These two aspects were evaluated first in model systems. […] An authentic HPLC trace of each was obtained and was then compared to a trace obtained after 1 h and 4 h of incubation. […] The stability of each compound was tested at physiological pH (100 mM TRIS-HCl, pH 7.2) as well as in the presence of glutathione (9 equiv).
Injections consisted of 100 μL, of a 50 μM.

[2] = Stability of model compounds in simulated physiological conditions, analytical HPLC; format: physicochemical; conditions: for stability: HEPES, RT, 24 h; for stability at physiological pH: 100 mM TRIS-HCl; for stability in the presence of glutathione: glutathione (9 equiv)
COX-1 = assay: COX inhibition, commercially available fluorescent assay (COX-1); format: biochemical; conditions: COX-1 isoform
Procedure: The efficacy of the prodrug to inhibit its target was also evaluated. For proIBU a commercially available fluorescent assay was utilized. ProIBU was tested against both isoforms of the COX enzyme. […] Table 1 and FIG. 3.

[3] = Hydrolytic stability of prodrugs in buffer and with biologically relevant nucleophiles, analytical HPLC
Procedure: Initially, an authentic HPLC trace was obtained of proIBU and proMMPi, and a second trace was obtained after incubating in buffer (100 mM TRIS-HCl, pH 7.4) for 24 h at 37° C. Each prodrug was incubated in the same conditions, with the addition of 20 equivalents of lysine, serine and glutathione, all in distinct trials.
All compounds were initially dissolved in DMSO and further diluted with specified buffer. Injections consisted of 100 μl, of a 1 mM solution.

SMILES | percent conversion to acid ([1]; 1 h) [%] | percent conversion to acid ([1]; 4 h) [%] | stability ([2]; pH 7.2 + GSH (9 equiv)) [%] | stability ([2]; pH 7.2) [%] | stability ([2]; pH 8.0) [%] | inhibition of COX enzyme (COX-1) | hydrolytic stability ([3]; 100 mM TRIS-HCl, pH 7.4, 24 h at 37° C., 20 equivalents of glutathione) [%] | hydrolytic stability ([3]; 100 mM TRIS-HCl, pH 7.4, 24 h at 37° C., 20 equivalents of lysine) [%] | hydrolytic stability ([3]; 100 mM TRIS-HCl, pH 7.4, 24 h at 37° C., 20 equivalents of serine) [%] | hydrolytic stability ([3]; buffer (100 mM TRIS-HCl, pH 7.4), 24 h at 37° C.) [%] | deprotection, conversion to the acid [1] | stability at physiological pH ([2]; pH 7.2) | stability in the presence of glutathione [2]
O=C1OCCN1C(=O)c1ccccc1 [Compound 1, 3-benzoyloxazolidin-2-one] | 14.6 | 25.6 | >99 | >99 | >99 |  |  |  |  |  |  |  | 
CC(C)Cc1ccc(C(C)C(=O)N2CCSC2=O)cc1 (stereo not drawn) [proIBU, 3-(2-(4-isobutylphenyl)propanoyl)thiazolidin-2-one] |  |  |  |  |  | little to no inhibition | > 99 | > 99 | > 99 | > 99 |  |  | 
O=C(Cc1ccccc1)N1CCOC1=O [Compound 5, 3-(2-phenylacetyl)oxazolidin-2-one] | <1 | <1 | 86.3 | >99 | 94.5 |  |  |  |  |  |  |  | 
O=C(Cc1ccccc1)N1CCSC1=O [Compound 6, 3-(2-phenylacetyl)thiazolidin-2-one] | 23.3 | 67.8 | >99 | >99 | >99 |  |  |  |  |  |  |  | 
O=C(Cc1ccccc1)N1CCSC1=S [Compound 8, 2-phenyl-1-(2-thioxothiazolidin-3-yl)ethan-1-one] | 87.6 | >99 | 39.5 | 32.5 | <1 |  |  |  |  |  | full deprotection | poorer stability | poorer stability
O=C1SCCN1C(=O)c1ccccc1 [Compound 2, 3-benzoylthiazolidin-2-one] | 13.6 | 37.8 | >99 | 88.6 | 82.5 |  |  |  |  |  |  |  | 
O=C(c1ccccc1)N1CCSC1=S [Compound 4, Phenyl(2-thioxothiazolidin-3-yl)methanone] | 48.5 | >99 | 77.6 | 57.0 | 54.8 |  |  |  |  |  | full deprotection | poorer stability | poorer stability
O=C(c1ccccc1)N1CCOC1=S [Compound 3, Phenyl(2-thioxooxazolidin-3-yl)methanone] | 44.7 | >99 | 59.5 | 95.5 | 41.2 |  |  |  |  |  | full deprotection | poorer stability | poorer stability
O=C(Cc1ccccc1)N1CCOC1=S [Compound 7, 2-phenyl-1-(2-thioxooxazolidin-3-yl)ethan-1-one] | 81.6 | >99 | 45.7 | 54.6 | 24.4 |  |  |  |  |  | full deprotection | poorer stability | poorer stability
